Assays:
MET = MET biochemical kinase assay; set-up: species or system human; concentration or dose not given beside the values
Method in brief: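 In this format, tyrosine phosphorylation of plate-captured human MET is followed in vitro after compound addition in ATP/divalent-cation buffer, detected by anti-phosphotyrosine-HRP with TMB substrate.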

FLK-1 receptor = biological target: T1, FLK-1 receptor (Mus musculus, UniProt P35918); assay: FLK-1 ELISA (kinase activity of the FLK-1 receptor in FLK-1/NIH3T3 cells, VEGF stimulated); assay type: cell-based; set-up: concentration or dose not given beside the values
T1 construct: expressed in transfected cells; host or cells: NIH3T3 C7#3
T1 sequence (P35918 20-1345): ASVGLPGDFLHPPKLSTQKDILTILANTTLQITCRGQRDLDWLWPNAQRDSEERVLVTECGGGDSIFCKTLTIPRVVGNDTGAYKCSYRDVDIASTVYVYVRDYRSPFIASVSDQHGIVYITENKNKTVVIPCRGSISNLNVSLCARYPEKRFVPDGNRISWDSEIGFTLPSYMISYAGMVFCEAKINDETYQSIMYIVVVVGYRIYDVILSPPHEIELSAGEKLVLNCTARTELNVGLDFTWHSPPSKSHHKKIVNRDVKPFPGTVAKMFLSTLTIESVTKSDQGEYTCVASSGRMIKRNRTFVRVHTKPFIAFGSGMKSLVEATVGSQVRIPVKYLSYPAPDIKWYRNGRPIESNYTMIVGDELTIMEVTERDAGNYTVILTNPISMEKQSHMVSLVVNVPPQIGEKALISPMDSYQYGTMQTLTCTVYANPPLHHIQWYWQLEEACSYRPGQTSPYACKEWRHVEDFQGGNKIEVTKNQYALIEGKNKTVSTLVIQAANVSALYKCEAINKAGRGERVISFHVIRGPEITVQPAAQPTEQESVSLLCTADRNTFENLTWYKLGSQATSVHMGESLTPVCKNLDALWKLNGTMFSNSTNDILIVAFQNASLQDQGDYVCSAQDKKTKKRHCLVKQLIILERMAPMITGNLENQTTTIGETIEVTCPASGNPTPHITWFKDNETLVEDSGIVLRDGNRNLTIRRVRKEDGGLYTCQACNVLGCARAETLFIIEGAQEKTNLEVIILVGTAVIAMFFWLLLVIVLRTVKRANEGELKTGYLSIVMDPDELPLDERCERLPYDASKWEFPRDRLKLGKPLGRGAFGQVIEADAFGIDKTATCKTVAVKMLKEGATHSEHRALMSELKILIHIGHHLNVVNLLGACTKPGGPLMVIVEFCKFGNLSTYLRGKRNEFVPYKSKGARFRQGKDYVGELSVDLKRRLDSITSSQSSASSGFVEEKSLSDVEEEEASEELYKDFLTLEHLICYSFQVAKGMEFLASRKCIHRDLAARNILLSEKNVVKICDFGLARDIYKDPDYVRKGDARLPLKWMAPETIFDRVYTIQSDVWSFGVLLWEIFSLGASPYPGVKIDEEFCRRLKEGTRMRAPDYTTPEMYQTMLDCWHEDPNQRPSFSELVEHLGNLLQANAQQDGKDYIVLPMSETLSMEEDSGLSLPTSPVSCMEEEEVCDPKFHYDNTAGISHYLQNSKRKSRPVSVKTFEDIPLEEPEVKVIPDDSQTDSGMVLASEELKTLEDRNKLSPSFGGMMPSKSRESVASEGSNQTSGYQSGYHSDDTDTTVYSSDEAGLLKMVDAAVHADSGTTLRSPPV
Method in brief: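 FLK-1-expressing NIH3T3 C7#3 cells, starved overnight in 0.1% FBS medium, were treated with compounds at a 1:200 final dilution (0.5% DMSO) for 2 h at 37 °C, with VEGF stimulation. FLK-1 kinase activity was read by ELISA on anti-rabbit IgG plates using affinity-purified anti-FLK-1 antiserum.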

Row | Structure (SMILES) | Met Kinase % Inhibition (MET) [%] | Fik Kinase %Inhibition (FLK-1 receptor) [%]
1 | CC(C)(C)c1cc(C=C2C(=O)Nc3ccc(S(=O)(=O)N4CCOCC4)cc32)ccc1OCc1ccccc1 [10732/F06] | 45.7 | 11.6
2 | COc1cc(Br)c(O)c(C=C2C(=O)Nc3ccc(S(=O)(=O)Nc4ccc(C(F)(F)F)cc4)cc32)c1 [10718/E03] | 95.3 | 10.0
3 | Cc1c(Br)ccc2c1C(=Cc1cc(Br)ccc1O)C(=O)N2 [10733/C09] | 16.3 | -18.0
4 | O=C1Nc2c(Br)cc(Br)cc2C1=Cc1cc([N+](=O)[O-])ccc1O [10733/A10] | 21.1 | -9.3
5 | CNS(=O)(=O)c1ccc2c(c1)C(=Cc1c(C)[nH]c(C(=O)OC)c1C(=O)OC)C(=O)N2 [10718/D07] | 26.1 | 7.8
6 | COc1c([N+](=O)[O-])cc(C=C2C(=O)Nc3c(Br)cc(Br)cc32)cc1C(C)(C)C [10733/A03] | 24.9 | 45.0
7 | COc1ccc(C=C2C(=O)Nc3ccc(S(=O)(=O)Nc4ccc(C(F)(F)F)cc4)cc32)cc1C(C)(C)C [10732/E05] | 2.2 | 18.7
8 | COc1c(Cl)cc(C=C2C(=O)Nc3ccc(CCCl)cc32)cc1C(C)(C)C [10732/G09] | 33.9 | 16.9
9 | CNS(=O)(=O)c1ccc2c(c1)C(=Cc1cc(Br)ccc1O)C(=O)N2 [10733/D09] | 38.7 | 9.8
10 | CCOC(=O)c1c(C)[nH]c(C=C2C(=O)Nc3ccc(S(=O)(=O)Nc4ccc(C(F)(F)F)cc4)cc32)c1C [10718/E02] | 46.3 | 19.7
11 | CNS(=O)(=O)c1ccc2c(c1)C(=Cc1cc(C)c(OCc3ccccc3)c(C)c1)C(=O)N2 [10733/D07] | -6.8 | -1.4
12 | COc1cc(Br)cc(C=C2C(=O)Nc3c(Br)cc(Br)cc32)c1O [10733/A08] | 27.2 | -17.1
13 | COc1c(C(C)C)cc(C=C2C(=O)Nc3ccc(S(=O)(=O)N4CCOCC4)cc32)cc1C(C)C [10732/F03] | 68.6 | 31.9
14 | CC(C)(C)c1cc(C=C2C(=O)Nc3ccc(CCCl)cc32)cc(Cl)c1OCc1ccccc1 [10732/G10] | 45.7 | 14.0
15 | CC(C)(C)c1cc(C=C2C(=O)Nc3c(Br)cc(Br)cc32)cc(C(C)(C)C)c1OCc1ccccc1 [10733/A05] | 18.2 | -23.3
16 | O=C1Nc2ccc(I)cc2C1=Cc1cc([N+](=O)[O-])ccc1O [10733/B10] | 65.1 | 5.7
17 | COc1c(I)cc(C=C2C(=O)Nc3ccc(S(=O)(=O)N4CCOCC4)cc32)cc1C(C)(C)C [10732/F11] | 75.2 | 21.9
18 | COc1c(Br)cc(C=C2C(=O)Nc3ccc(CCCl)cc32)cc1C(C)(C)C [10732/G07] | 23.9 | 4.6

Row | Structure (SMILES) | Met Kinase % Inhibition (MET) [%] | Fik Kinase %Inhibition (FLK-1 receptor) [%]
19 | COc1c(O)ccc(C=C2C(=O)Nc3ccc(I)cc32)c1[N+](=O)[O-] [10733/B11] | 36.6 | 22.5
20 | CC(C)(C)c1cc(C=C2C(=O)Nc3ccc(CCCl)cc32)cc(Br)c1OCc1ccccc1 [10732/G08] | 44.7 | 10.0
21 | COc1ccc(C=C2C(=O)Nc3ccc(CCCl)cc32)cc1C(C)(C)C [10732/G05] | 15.2 | 17.2
22 | COc1c(C)cc(C=C2C(=O)Nc3ccc(I)cc32)cc1C [10733/B06] | 71.4 | 4.6
23 | COc1c(C(C)(C)C)cc(C=C2C(=O)Nc3ccc(I)cc32)cc1C(C)(C)C [10733/B04] | 56.3 | -3.3
24 | CC(C)(C)c1cc(C=C2C(=O)Nc3ccc(S(=O)(=O)N4CCOCC4)cc32)cc(Br)c1OCc1ccccc1 [10732/F08] | 76.6 | 12.6
25 | CNS(=O)(=O)c1ccc2c(c1)C(=Cc1ccc(Cl)c([N+](=O)[O-])c1)C(=O)N2 [10718/D08] | 2.3 | 3.9
26 | O=C1Nc2ccc(CCCl)cc2C1=CC(c1cccs1)C(F)(F)F (stereo not drawn) [10732/G02] | 39.5 | 8.1
27 | CNS(=O)(=O)c1ccc2c(c1)C(=Cc1ccc([N+](=O)[O-])o1)C(=O)N2 [10718/D11] | 11.3 | 13.3
28 | CC(C)(C)c1cc(C=C2C(=O)Nc3ccc(S(=O)(=O)Nc4ccc(C(F)(F)F)cc4)cc32)ccc1OCc1ccccc1 [10732/E06] | -2.1 | 2.8
29 | COc1c(C(C)(C)C)cc(C=C2C(=O)Nc3c(Br)cc(Br)cc32)cc1C(C)(C)C [10733/A04] | 24.0 | -11.2
30 | O=C1Nc2ccc(S(=O)(=O)N3CCOCC3)cc2C1=CC(c1cccs1)C(F)(F)F (stereo not drawn) [10732/F02] | 55.6 | 7.0
31 | COc1ccc(C=C2C(=O)Nc3ccc(S(=O)(=O)N4CCOCC4)cc32)cc1C(C)(C)C [10732/F05] | 58.9 | 37.3
32 | CC(C)(C)c1cc(C=C2C(=O)Nc3ccc(S(=O)(=O)N4CCOCC4)cc32)cc(Cl)c1OCc1ccccc1 [10732/F10] | 65.1 | 14.1
33 | Cc1c(Br)ccc2c1C(=Cc1cc(I)c(OCc3ccccc3)c(C(C)(C)C)c1)C(=O)N2 [10733/C02] | 71.8 | 5.8
34 | CC(C)(C)c1cc(C=C2C(=O)Nc3ccc(S(=O)(=O)Nc4ccc(C(F)(F)F)cc4)cc32)cc(Br)c1OCc1ccccc1 [10732/E08] | 29.4 | 13.6
35 | COc1c(C(C)(C)C)cc(C=C2C(=O)Nc3ccc(Br)c(C)c32)cc1C(C)(C)C [10733/C04] | 18.4 | 8.4
36 | O=C1Nc2c(Br)cc(Br)cc2C1=Cc1cc(Br)ccc1O [10733/A09] | 22.1 | -11.9
